Test results published in patent US11623909B2, “Water-based extraction and purification processes for cannabinoid acids” (MEDPHARM IOWA LLC, priority 2019, dated 2023).

Experiments:
[1] = HPLC of acidified solution after precipitation of cannabinoid acid (amount remaining in solution); assay type: physicochemical
From the text: Precipitation of crude extract (CBDA) by acidification was done with either hydrochloric acid or nitric acid. No difference was observed between the two since the precipitation was pH driven. 1.0-1.5 equivalents of acid (relative to total base) was sufficient for precipitation of the crude extract. The crude extract had CBDA purities on the order of 40-50% and were independent of the amount of acid added. E.g. adding fewer than 1.0 equivalents in an attempt to selectively precipitate either impurities or CBDA yielded crude material with similar purities. Addition of more acid yielded more precipitate of similar purity (up to 1.0-1.5 equivalents). Addition of more than 1.5 equivalents yielded no additional precipitate. Though when the mixture was allowed to sit overnight more white precipitate formed. […]
‘Spent’ CO2-stripped biomass was aliquoted out to 50 g portions (˜6 g THCA). […] All filtrate was analyzed by HPLC prior to acidification. […] Both the filtrate and dried material were analyzed by HPLC. […]
Experiment A utilized a NaOH:THCA (mol:mol) ratio of 1:1 (see Table 4). […] The amount of THCA detected in the filtrate increased with each successive wash until a rinse with no added NaOH was conducted for 1 minute. […] The precipitate was filtered off, collected, and analyzed by HPLC. The filtrate was acidified to pH 2.16 to yield a tan/brown precipitate, filter, collected and analyzed by HPLC. […]

[2] = Solubility limit of THCA anions in aqueous NaOH wash (experiment A, 1:1 NaOH:THCA); assay type: physicochemical; conditions: NaOH:THCA 1:1 mol:mol, room temperature, conditions of experiment A
Experimental: ‘Spent’ CO2-stripped biomass was aliquoted out to 50 g portions (˜6 g THCA). Water (400 ml) and a 40 wt % solution of NaOH (see Tables 4-6) was added to the plant material. The mixture was allowed to stir for 10 minutes at 500-1000 RPM (speed was adjusted to minimize foaming). Solid materials were filtered off with coffee filters. The process was repeated for a total of 4 (Expt A) to 5 (Expts B&C) iterations. A final rinse 2×200 ml with no NaOH was stirred for 1 minute then filtered off. All filtrate was analyzed by HPLC prior to acidification. Acidification to pH 2-3 with HCl, as described above, yielded a precipitate which was filtered off and dried. Both the filtrate and dried material were analyzed by HPLC. All extractions were done at room temperature.
Experiment A utilized a NaOH:THCA (mol:mol) ratio of 1:1 (see Table 4). […] The amount of THCA detected in the filtrate increased with each successive wash until a rinse with no added NaOH was conducted for 1 minute. […] The precipitate was filtered off, collected, and analyzed by HPLC. The filtrate was acidified to pH 2.16 to yield a tan/brown precipitate, filter, collected and analyzed by HPLC. […] The final filtrate (left over after harvesting THCA) contained THCA quantities that were below the limit of quantification (less than 10 mg/400 g wash/rinse; that is <0.001 wt % THCA).

| SMILES | CBDA remaining in acidified solution (loss) ([1]; acidified solution pH~4, after precipitation of crude extract) | solubility limit for THCA anions [2] | THCA in final filtrate after acidification (below limit of quantification) ([1]; filtrate after acidification to pH 2-3 with HCl and harvesting THCA, experiment A) |
| --- | --- | --- | --- |
| C=C(C)[C@@H]1CCC(C)=C[C@H]1c1c(O)cc(CCCCC)c(C(=O)O)c1O [CBDA] | ~7 μg CBDA/ml |  |  |
| CCCCCc1cc2c(c(O)c1C(=O)O)[C@@H]1C=C(C)CC[C@H]1C(C)(C)O2 [THCA] |  | around 0.3 wt % | < 0.001 wt % THCA |
